The values below come from US20260184663A1, “INDENE COMPOUNDS, PHARMACEUTICAL COMPOSITIONS THEREOF, AND THEIR THERAPEUTIC APPLICATIONS” (NucMito Pharmaceuticals co. Ltd., priority 2022, published 2026).

Structures are written as SMILES.

What all share (type): cell-based
The subject of test [1] is A431 (epidermoid carcinoma). As to the kind of experiment: Antiproliferative activity (CCK-8 cell viability), A431. To be noted: Homo sapiens, 72 h; for inhibition at 3.3 µM: A-431, Compound concentration: 3.3 μM; for inhibition at 3.3 µM / inhibition at 10 µM: read-out: Antiproliferative activity in cancerous cells, A431 (inhibition of cell growth); for inhibition at 10 µM: A-431, Compound concentration: 10 μM; for inhibition at 30 µM: A-431, Compound concentration: 30 μM, read-out: Antiproliferative activity in cancerous cells, A431. The method, boiled down:
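A431 epidermoid carcinoma cells grown in DMEM with 10% FBS were plated at 2,000-5,000 cells/well in 96-well plates. After attachment they were exposed to compound at 3.3 μM, 10 μM, or 30 μM for 72 h at 37° C. Viability was then assessed by CCK-8 against DMSO vehicle-treated wells.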

For test [2], the system named is MDA-MB-231 (breast cancer). Put plainly: Antiproliferative activity (CCK-8 cell viability), MDA-MB-231. As to conditions: Homo sapiens, 72 h; for inhibition at 3.3 µM: Compound concentration: 3.3 μM; for inhibition at 3.3 µM / inhibition at 10 µM: read-out: Antiproliferative activity in cancerous cells, MDA-MB-231 (inhibition of cell growth); for inhibition at 10 µM: Compound concentration: 10 μM; for inhibition at 30 µM: Compound concentration: 30 μM, read-out: Antiproliferative activity in cancerous cells, MDA-MB-231. The method, boiled down: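 MDA-MB-231 breast cancer cells, grown in DMEM with 10% FBS, were plated in 96-well plates at 2,000-5,000 cells/well. Once attached, they were exposed to compound and incubated at 37° C. for 72 h. Viability was then measured with CCK-8 (10 μL per well, 4 h at 37° C.) by absorbance at 450 nm, relative to DMSO vehicle wells.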

Test [3] concerns B16F10 (malignant melanoma). Put plainly: Antiproliferative activity (CCK-8 cell viability), B16F10. To be noted: Mus musculus, 72 h, read-out: Antiproliferative activity in cancerous cells, B16F10 (inhibition of cell growth); for inhibition at 3.3 µM: B16-F10, Compound concentration: 3.3 μM; for inhibition at 10 µM: B16-F10, Compound concentration: 10 μM. The essentials:
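B16F10 melanoma cells grown in DMEM with 10% FBS were plated in 96-well plates at 2,000-5,000 cells/well. After attachment they were exposed to compound in medium for 72 h at 37° C. CCK-8 solution (10 μL) was then added, and after 4 h at 37° C absorbance was read at 450 nm.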

For a further test, the system named is HeLa (cervical cancer). Put plainly: Antiproliferative activity (CCK-8 cell viability), HeLa. To be noted: Homo sapiens, 72 h, read-out: Antiproliferative activity in cancerous cells, HELA (inhibition of cell growth); for inhibition at 3.3 µM: Compound concentration: 3.3 μM; for inhibition at 10 µM: Compound concentration: 10 μM. The method, boiled down: (§1)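 Cells grown in DMEM (HepG2, SW480), MEM (HeLa) or F-12K (A549), each with 10% FBS, then exposed to compound at 3.3, 10 or 30 μM for 72 h at 37 °C. CCK-8 absorbance at 450 nm; viability expressed as percent of DMSO-treated cells, graded as growth inhibition bands.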

The test system of a further test is HepG2 (liver cancer). As to the kind of experiment: Antiproliferative activity (CCK-8 cell viability), HepG2. To be noted: Homo sapiens, 72 h; for inhibition at 3.3 µM: Compound concentration: 3.3 μM; for inhibition at 3.3 µM / inhibition at 10 µM: read-out: Antiproliferative activity in cancerous cells, HepG2 (inhibition of cell growth); for inhibition at 10 µM: Compound concentration: 10 μM. The method, boiled down: as §1

Test [4] concerns A549 (lung adenocarcinoma). As to the kind of experiment: Antiproliferative activity (CCK-8 cell viability), A549. To be noted: Homo sapiens, 72 h; for inhibition at 3.3 µM: Compound concentration: 3.3 μM; for inhibition at 3.3 µM / inhibition at 10 µM: read-out: Antiproliferative activity in cancerous cells, A549 (inhibition of cell growth); for inhibition at 10 µM: Compound concentration: 10 μM; for inhibition at 30 µM: Compound concentration: 30 μM, read-out: Antiproliferative activity in cancerous cells, A549. The method, boiled down:
as §1

In a further test the test system is SW480 (colon cancer). Put plainly: Antiproliferative activity (CCK-8 cell viability), SW480. To be noted: Homo sapiens, 72 h; for inhibition at 3.3 µM: Compound concentration: 3.3 μM; for inhibition at 3.3 µM / inhibition at 10 µM: read-out: Antiproliferative activity in cancerous cells, SW480 (inhibition of cell growth); for inhibition at 10 µM: Compound concentration: 10 μM; for inhibition at 30 µM: Compound concentration: 30 μM, read-out: Antiproliferative activity in cancerous cells, SW480. The essentials:
as §1

Regarding `CC1=C(CC(=O)O)c2cc(F)c(F)cc2/C1=C\c1ccc(COc2ccc(F)cc2)cc1` [B53, (Z)-2-(5,6-Difluoro-1-(4-((4-fluorophenoxy)methyl)benzylidene)-2-methyl-1H-inden-3-yl)acetic acid], the inhibition at 3.3 µM in test [1] is 30 to 50%; in test [2], at least 50%; in test [3], 30 to 50%; with HeLa (cervical cancer), below 30%; in the test with HepG2 (liver cancer), below 30%; in test [4] it was below 30%. In addition, the inhibition at 3.3 µM with SW480 (colon cancer) was in the range of 30 to 50%. Further, the inhibition at 10 µM in test [1] was 30 to 50%; in test [2], at least 50%; in test [3], at least 50%; in the test with HeLa (cervical cancer), below 30%; with HepG2 (liver cancer), below 30%; in test [4], 30 to 50%. Also, the inhibition at 10 µM with SW480 (colon cancer) fell in the range of 30 to 50%. The inhibition at 30 µM (in test [1]; in the test with SW480 (colon cancer)) was 30 to 50% in each case.
Consider `COc1ccc2c(c1)C(CC(=O)O)=C(C)/C2=C/c1ccc(COc2ccc(F)cc2)cc1` [B54, (Z)-2-(1-(4-((4-Fluorophenoxy)methyl)benzylidene)-5-methoxy-2-methyl-1H-inden-3-yl)acetic acid], for which the inhibition at 3.3 µM in test [1] was 30 to 50%; in test [2], 30 to 50%; in test [3], at least 50%; in the test on HeLa (cervical cancer), at least 50%; with HepG2 (liver cancer), below 30%; in test [4], below 30%. For the same compound, the inhibition at 3.3 µM in the test on SW480 (colon cancer) was below 30%. For the same compound, the inhibition at 10 µM in test [1] is 30 to 50%; in test [2] it was at least 50%; in test [3] it was at least 50%; with HeLa (cervical cancer) it was at least 50%; with HepG2 (liver cancer), below 30%; in test [4], 30 to 50%. Moreover, the inhibition at 10 µM in the test with SW480 (colon cancer) was below 30%. Moreover, the inhibition at 30 µM in test [1] is 30 to 50%; in the test on HepG2 (liver cancer) (Compound concentration: 30 μM, read-out: Antiproliferative activity in cancerous cells, HepG2) it was 30 to 50%; in test [4], 30 to 50%; with SW480 (colon cancer), below 30%.
On to `CCc1ccc2c(c1)C(CC(=O)O)=C(C)/C2=C/c1ccc(COc2ccc(F)c(F)c2)cc1` [B55, (Z)-2-(1-(4-((3,4-Difluorophenoxy)methyl)benzylidene)-5-ethyl-2-methyl-1H-inden-3-yl)acetic acid], for which the inhibition at 3.3 µM is 30 to 50% in test [1]; at least 50% in test [2]; at least 50% in test [3]; below 30% in the test on HeLa (cervical cancer); below 30% in the test on HepG2 (liver cancer); 30 to 50% in test [4]. Also, in the test on SW480 (colon cancer), the inhibition at 3.3 µM was below 30%. Further, the inhibition at 10 µM (in test [1]; in test [2]; in test [3]; with HeLa (cervical cancer); in the test on HepG2 (liver cancer); in test [4]) was at least 50% throughout. Also, the inhibition at 10 µM in the test with SW480 (colon cancer) is at least 50%.
For `CCc1ccc2c(c1)C(CC(=O)O)=C(C)/C2=C/c1ccc(COc2ccc(Cl)cc2)cc1` [B56, (Z)-2-(1-(4-((4-Chlorophenoxy)methyl)benzylidene)-5-ethyl-2-methyl-1H-inden-3-yl)acetic acid], the inhibition at 3.3 µM was at least 50% in test [1]; below 30% in test [2]; 30 to 50% in test [3]; at least 50% in the test with HeLa (cervical cancer); at least 50% in the test on HepG2 (liver cancer); 30 to 50% in test [4]. Besides, the inhibition at 3.3 µM with SW480 (colon cancer) lay within 30 to 50%. Also, the inhibition at 10 µM is at least 50% in test [1]; 30 to 50% in test [2]; at least 50% in test [3]; at least 50% with HeLa (cervical cancer); at least 50% in the test with HepG2 (liver cancer); at least 50% in test [4]. In the test on SW480 (colon cancer), the inhibition at 10 µM is at least 50%.
For the compound `CC1=C(CC(=O)O)c2cc(Cl)ccc2/C1=C\c1ccc(COc2ccc(F)cc2)cc1` [B57, (Z)-2-(5-Chloro-1-(4-((4-fluorophenoxy)methyl)benzylidene)-2-methyl-1H-inden-3-yl)acetic acid], the inhibition at 3.3 µM in test [1] is 30 to 50%; in test [2], below 30%; in test [3], at least 50%; in the test with HeLa (cervical cancer) it was below 30%; in the test with HepG2 (liver cancer), below 30%; in test [4], below 30%. The inhibition at 3.3 µM in the test on SW480 (colon cancer) is below 30%. The inhibition at 10 µM in test [1] is 30 to 50%; in test [2], below 30%; in test [3], 30 to 50%; in the test on HeLa (cervical cancer) it was at least 50%; in the test with HepG2 (liver cancer), 30 to 50%; in test [4] it was below 30%. For the same compound, in the test on SW480 (colon cancer), the inhibition at 10 µM was below 30%. For the same compound, the inhibition at 30 µM in test [1] was 30 to 50%; in test [2] it was below 30%; in test [4], below 30%; in the test with SW480 (colon cancer) it was below 30%.
Consider `CC1=C(CC(=O)O)c2cc(Cl)ccc2/C1=C\c1ccc(COc2ccc(C(F)(F)F)cc2)cc1` [B58, (Z)-2-(5-Chloro-2-methyl-1-(4-((4-(trifluoromethyl)phenoxy)methyl)-benzylidene)-1H-inden-3-yl)acetic acid], for which the inhibition at 3.3 µM in test [1] was 30 to 50%; in test [2], below 30%; in test [3], at least 50%; in the test on HeLa (cervical cancer) it was 30 to 50%; with HepG2 (liver cancer), below 30%; in test [4] it was below 30%. For the same compound, the inhibition at 3.3 µM in the test on SW480 (colon cancer) was below 30%. Besides, the inhibition at 10 µM is 30 to 50% in test [1]; below 30% in test [2]; at least 50% in test [3]; at least 50% in the test with HeLa (cervical cancer); at least 50% in the test on HepG2 (liver cancer); 30 to 50% in test [4]. Also, in the test on SW480 (colon cancer), the inhibition at 10 µM was 30 to 50%. In addition, in test [2], the inhibition at 30 µM fell in the range of 30 to 50%.
As to `CC1=C(CC(=O)O)c2cc(C)ccc2/C1=C\c1ccc(COc2ccc(C(F)(F)F)cc2)cc1` [B59, (Z)-2-(2,5-Dimethyl-1-(4-((4-(trifluoromethyl)phenoxy)methyl)benzylidene)-1H-inden-3-yl)acetic acid], the inhibition at 3.3 µM was at least 50% in test [1]; below 30% in test [2]; 30 to 50% in test [3]; 30 to 50% in the test on HeLa (cervical cancer); below 30% with HepG2 (liver cancer); below 30% in test [4]. The inhibition at 3.3 µM with SW480 (colon cancer) is below 30%. In addition, the inhibition at 10 µM in test [1] is at least 50%; in test [2] it was below 30%; in test [3], at least 50%; in the test on HeLa (cervical cancer) it was 30 to 50%; with HepG2 (liver cancer), below 30%; in test [4] it was 30 to 50%. For the same compound, the inhibition at 10 µM in the test with SW480 (colon cancer) lay in the range of 30 to 50%. Further, the inhibition at 30 µM in test [2] was below 30%; in test [4], 30 to 50%.
